Reference: patent publication US10577329B2, “Fused-bicyclic aryl quinolinone derivatives as mutant-isocitrate dehydrogenase inhibitors” (FORMA Therapeutics, Inc., priority 2015, dated 2020)
Read-outs that look alike come from different tables or passages of the source.

Legend:
[1] = target: IDH1-R132H recombinant protein (Homo sapiens, UniProt O75874, R132H); assay: IDH1-R132H enzymatic assay (NADPH consumption, diaphorase/resazurin readout); format: biochemical; details: 30 nM IDH1-R132H, inhibition of NADPH consumption; read-out: Enzyme IDH1 R132H IC50
Method: (§1) Example 34—IDH1-R132H and IDH1-R132C Enzymatic Assay
(§2) Assays were performed in a 384-well black plate. An aliquot of 250 nL of compound was incubated with 10 μL of 30 nM IDH1-R132H or 10 nM IDH1-R132C recombinant protein in assay buffer (50 mM Tris pH=7.5, 150 mM NaCl, 5 mM MgCl2, 0.1% (w/v) Bovine Serum Albumin, and 0.01% Triton X-100) in each well at 25° C. for 15 minutes. After the plate was centrifuged briefly, an aliquot of 10 μL of 2 mM α-ketoglutarate and 20 μM NADPH solution prepared in assay buffer was then added to each well and the reaction was maintained at 25° C. for 45 minutes. An aliquot of 10 μL of diaphorase solution (0.15 U/mL diaphorase and 30 μM Resazurin in assay buffer) was added to each well. The plate was maintained at 25° C. for 15 minutes and then read on a plate reader with excitation and emission wavelengths at 535 nm and 590 nm, respectively. The IC50 of a given compound was calculated by fitting the dose response curve of inhibition of NADPH consumption at a given concentration with the four parameter logistic equation.

[2] = target: IDH1-R132C recombinant protein (Homo sapiens, UniProt O75874, R132C); assay: IDH1-R132C enzymatic assay (NADPH consumption, diaphorase/resazurin readout); format: biochemical; details: 10 nM IDH1-R132C, inhibition of NADPH consumption; read-out: Enzyme IDH1 R132C IC50
Method: as §1, §2

[3] = test system: HCT116 isogenic IDH1-R132H mutant cells; assay: Cellular 2-HG assay using HCT116 mutant IDH1-R132H cells; format: cell-based; details: Homo sapiens, read-out: HCT116 IDH1 R132H IC50
Method: (§3) HCT116 isogenic IDH1-R132H and IDH1-R132C mutant cells were cultured in growth media (McCoy's 5A, 10% fetal bovine serum, 1× antibiotic-antimycotic solution and 0.3 mg/mL G418) in 5% CO2 in an incubator at 37° C. To prepare the assay, cells were trypsinized and resuspended in assay media (McCoy's 5A with no L-glutamine, 10% fetal bovine serum, 1× antibiotic-antimycotic solution and 0.3 mg/mL G418). An aliquot of 10,000 cells/100 μL was transferred to each well of a clear 96-well tissue culture plate. The cells were incubated in 5% CO2 at 37° C. in an incubator overnight to allow for proper cell attachment. An aliquot of 50 μL of compound containing assay media were then added to each well and the assay plate was kept in 5% CO2 at 37° C. in an incubator for 24 hours. The media was then removed from each well and 150 μL of a methanol/water mixture (80/20 v/v) was added to each well. The plates were kept at −80° C. freezer overnight to allow for complete cell lysis. An aliquot of 125 μL of extracted supernatant was analyzed by RapidFire high-throughout-mass spectrometry (Agilent) to determine the cellular 2-HG level. The IC50 of a given compound was calculated by fitting the dose response curve of cellular 2-HG inhibition at a given concentration with the four parameter logistic equation

[4] = test system: HCT116 isogenic IDH1-R132C mutant cells; assay: Cellular 2-HG assay using HCT116 mutant IDH1-R132C cells; format: cell-based; details: Homo sapiens, read-out: HCT116 IDH1 R132C IC50
Method: as §3

[5] = HCT-116, cellular 2-HG inhibition, 24 hours, RapidFire mass spectrometry

Chain of IDH1-R132C recombinant protein (O75874 whole entry R132C): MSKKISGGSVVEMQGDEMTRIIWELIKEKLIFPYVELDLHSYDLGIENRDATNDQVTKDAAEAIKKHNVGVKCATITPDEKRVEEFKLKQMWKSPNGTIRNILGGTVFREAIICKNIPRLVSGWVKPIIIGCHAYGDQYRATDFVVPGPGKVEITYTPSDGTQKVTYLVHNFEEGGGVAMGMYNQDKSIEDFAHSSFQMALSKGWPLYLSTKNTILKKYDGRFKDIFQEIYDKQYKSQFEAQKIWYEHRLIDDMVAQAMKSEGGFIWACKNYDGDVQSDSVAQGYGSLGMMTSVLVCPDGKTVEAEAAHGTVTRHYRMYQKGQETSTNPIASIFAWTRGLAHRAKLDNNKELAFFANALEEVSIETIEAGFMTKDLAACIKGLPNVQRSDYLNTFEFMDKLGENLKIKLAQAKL
Chain of IDH1-R132H recombinant protein (O75874 whole entry R132H): as the sequence (O75874 whole entry R132C) above, with C132H counted along it

Row | Structure (SMILES) | IC50 [1] [nM] | IC50 [2] [nM] | IC50 ([3]; HCT-116, 24 h) [nM] | IC50 ([4]; HCT-116, 24 h) [nM] | IC50 [3, 5] [nM] | IC50 [4, 5] [nM]
1 | COc1cc2[nH]c(=O)c(C(C)Nc3ncc4c(n3)N(C)C(=O)OC4)cc2cc1Cl (racemic) [Compound I-50, 6-chloro-7-methoxy-3-[1-({1-methyl-2-oxo-1H,2H,4H-pyrimido[4,5-d][1,3]oxazin-7-yl}amino)ethyl]-1,2-dihydroquinolin-2-one] | < 100 | < 100 | < 100 | < 100 |  | 
2 | C[C@H](Nc1ncc2cn[nH]c2n1)c1cc2cc(Cl)ccc2[nH]c1=O [Compound I-45, 6-chloro-3-[(1S)-1-({1H-pyrazolo[3,4-d]pyrimidin-6-yl}amino)ethyl]-1,2-dihydroquinolin-2-one] |  |  | 100 to 1000 | 100 to 1000 |  | 
3 | C[C@H](Nc1ncc2c(n1)N(C)C(=O)OC2)c1cc2cc(Cl)ccc2[nH]c1=O [Compound I-47, 6-chloro-3-[(1S)-1-({1-methyl-2-oxo-1H,2H,4H-pyrimido[4,5-d][1,3]oxazin-7-yl}amino)ethyl]-1,2-dihydroquinolin-2-one] |  |  |  |  | < 100 | < 100
4 | C[C@H](Nc1ncc2c(n1)N(C)C(=O)OC2)c1cc2cc(Cl)c(OCc3ccccn3)cc2[nH]c1=O [Compound I-48, 6-chloro-3-[(1S)-1-({1-methyl-2-oxo-1H,2H,4H-pyrimido[4,5-d][1,3]oxazin-7-yl}amino)ethyl]-7-(pyridin-2-ylmethoxy)-1,2-dihydroquinolin-2-one] |  |  |  |  | < 100 | < 100
5 | C[C@H](Nc1ncc2c(n1)NC(=O)OC2)c1cc2cc(Cl)ccc2[nH]c1=O [Compound I-49, 6-chloro-3-[(1S)-1-({2-oxo-1H,2H,4H-pyrimido[4,5-d][1,3]oxazin-7-yl}amino)ethyl]-1,2-dihydroquinolin-2-one] |  |  |  |  | < 100 | 100 to 1000
6 | COc1cc2[nH]c(=O)c([C@H](C)Nc3ncc4c(n3)N(C)C(=O)OC4)cc2cc1Cl [Compound I-51, 6-chloro-7-methoxy-3-[(1S)-1-({1-methyl-2-oxo-1H,2H,4H-pyrimido[4,5-d][1,3]oxazin-7-yl}amino)ethyl]-1,2-dihydroquinolin-2-one] |  |  | < 100 | < 100 |  | 
7 | CC(C)Cn1c(=O)oc2cnc(N[C@@H](C)c3cc4cc(Cl)ccc4[nH]c3=O)nc21 [Compound I-55, 6-chloro-3-[(1S)-1-{[3-(2-methylpropyl)-2-oxo-2H,3H-[1,3]oxazolo[4,5-d]pyrimidin-5-yl]amino}ethyl]-1,2-dihydroquinolin-2-one] |  |  |  |  | 100 to 1000 | 1000 to 10000
8 | C[C@H](Nc1ncc2oc(=O)[nH]c2n1)c1cc2cc(Cl)ccc2[nH]c1=O [Compound I-56, 6-chloro-3-[(1S)-1-({2-oxo-2H,3H-[1,3]oxazolo[4,5-d]pyrimidin-5-yl}amino)ethyl]-1,2-dihydroquinolin-2-one] |  |  | 1000 to 10000 | > 10000 |  | 
9 | C[C@H](Nc1ncc2oc(=O)n(C)c2n1)c1cc2cc(Cl)ccc2[nH]c1=O [Compound I-57, 6-chloro-3-[(1S)-1-({3-methyl-2-oxo-2H,3H-[1,3]oxazolo[4,5-d]pyrimidin-5-yl}amino)ethyl]-1,2-dihydroquinolin-2-one] |  |  | 100 to 1000 | 100 to 1000 |  | 
10 | C[C@H](Nc1ncc2[nH]c(=O)n(C)c2n1)c1cc2cc(Cl)ccc2[nH]c1=O [Compound I-58, 6-chloro-3-[(1S)-1-[(9-methyl-8-oxo-8,9-dihydro-7H-purin-2-yl)amino]ethyl]-1,2-dihydroquinolin-2-one] |  |  | 100 to 1000 | 1000 to 10000 |  | 
11 | C[C@H](Nc1ncc2c(n1)NC(=O)C2)c1cc2cc(Cl)ccc2[nH]c1=O [Compound I-60, 6-chloro-3-[(1S)-1-({6-oxo-5H,6H,7H-pyrrolo[2,3-d]pyrimidin-2-yl}amino)ethyl]-1,2-dihydroquinolin-2-one] |  |  |  |  | 100 to 1000 | 1000 to 10000
12 | C[C@H](Nc1ncc2c(n1)N(C)C(=O)C2)c1cc2cc(Cl)ccc2[nH]c1=O [Compound I-61, 6-chloro-3-[(1S)-1-({7-methyl-6-oxo-5H,6H,7H-pyrrolo[2,3-d]pyrimidin-2-yl}amino)ethyl]-1,2-dihydroquinolin-2-one] |  |  |  |  | 100 to 1000 | 100 to 1000
